Assay results taken from patent US7803801B2, “Aminopyridine compounds having Syk inhibitory activity” (Japan Tobacco, Inc., priority 2005, dated 2010).
pIC50: −log10 of the molar value. Structures can show the parent of a compound that is named as a salt.

molecular target: GST-Syk Full Protein (human) (Homo sapiens, UniProt P43405); assay: Syk kinase inhibition test (HTRF method); format: biochemical; settings: HTRF, 100 μM ATP, 30 min room temperature, average; read-out: sykHTRF ave IC50
How it was run: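 Human GST-Syk full-length (6.4 nM) phosphorylated biotin-EDPDYEWPSA-NH2 (250 nM) with 100 μM ATP in HEPES pH 7.0/MgCl2 buffer, 2% DMSO, 30 min at room temperature. EDTA stop, then HTRF detection (streptavidin-XL665, Eu anti-phosphotyrosine) after 1 h; 665/620 ratio read.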

pIC50 | SMILES
< 6.00 | Cc1ccnc(Nc2cccc(-c3cnc([C@H](Cc4ccc(OCc5ccccc5)cc4)NC(=O)OC(C)(C)C)s3)n2)c1 [Compound A-85]
6.00 to 7.00 | Cc1ccnc(Nc2cccc(-c3cnc([C@@H](N)CCCCN)s3)n2)c1 [Compound A-63]
6.00 to 7.00 | CCOC(=O)Cc1ccnc(Nc2cccc(-c3cnc([C@H](C)NC(C)=O)s3)n2)c1 [Compound A-329]

same assay, conditions: Tables 1-x, compounds A; read-out: sykHTRF ave IC50

SMILES | pIC50
Cc1ccnc(Nc2cccc(-c3cnc(CSc4ccc(C(=O)O)cc4)s3)n2)c1 [Compound A-619] | 6.00 to 7.00
Cc1ccnc(Nc2cccc(-c3cnc(N4CCC[C@H]4C(=O)NCC(C)(C)C)s3)n2)c1 [Compound A-660] | 6.00 to 7.00
NC(=O)[C@@H]1CCCN1c1ncc(-c2cccc(Nc3cc(CC(=O)O)ccn3)n2)s1 [Compound A-559] | 6.00 to 7.00
Cc1ccnc(Nc2cccc(-c3cnc(N4CCC(C(=O)N(CCO)CCO)CC4)s3)n2)c1 [Compound A-449] | 6.00 to 7.00
Cc1ccnc(Nc2cccc(-c3cnc(CN4CCC[C@H]4C(N)=O)s3)n2)c1 [Compound A-667] | 6.00 to 7.00
Cc1ccnc(Nc2cccc(-c3cnc(N(C)C4CCN(C(=O)C5CCC(O)CC5)CC4)s3)n2)c1 (stereo not shown) [Compound A-672] | 6.00 to 7.00
COc1ccc(C)cc1Nc1cccc(-c2cnc(N3CCC(CC(=O)O)CC3)s2)n1 [Compound A-708] | 6.00 to 7.00
Cc1cccc(Nc2cccc(-c3cnc(N4CCC(CC(=O)O)CC4)s3)n2)n1 [Compound A-628] | 6.00 to 7.00
Cc1ccnc(Nc2cccc(-c3cnc(N(C)C4CCC(C(=O)N(C)C)CC4)s3)n2)c1 (stereo not shown) [Compound A-447] | 6.00 to 7.00
CN(CCO)c1ncc(-c2cccc(Nc3cc(CC(=O)O)ccn3)n2)s1 [Compound A-550] | 6.00 to 7.00
Cc1ccnc(Nc2cccc(-c3cnc(N(C)C(C(=O)N4CCC(O)CC4)C(C)C)s3)n2)c1 (stereo not shown) [Compound A-675] | 6.00 to 7.00

Continued, values first:

pIC50 | SMILES
6.00 to 7.00 | Cc1ccnc(Nc2cccc(-c3cnc(CN(C)CC(=O)NCC(C)(C)C)s3)n2)c1 [Compound A-689]
6.00 to 7.00 | COC(=O)N(CC(=O)O)Cc1ncc(-c2cccc(Nc3cc(C)ccn3)n2)s1 [Compound A-583]
> 7.00 | Cc1ccnc(Nc2cccc(-c3cnc(N4CCC(CCO)CC4)s3)n2)c1 [Compound A-677, 2-(1-{5-[6-(4-methylpyridin-2-ylamino)pyridin-2-yl]thiazol-2-yl}piperidin-4-yl)ethanol]
6.00 to 7.00 | O=C(O)CC1CCN(c2ncc(-c3cccc(Nc4ncccn4)n3)s2)CC1 [Compound A-679]
> 7.00 | Cc1ccnc(Nc2cccc(-c3cnc(N(C)C4CCC(C(=O)NCCO)CC4)s3)n2)c1 (stereo not shown) [Compound A-493, N-(2-hydroxyethyl)-4(N′-methyl-N′-{5-[6-(4-methylpyridin-2-ylamino)pyridin-2-yl]thiazol-2-yl}amino)cyclohexanecarboxamide]
> 7.00 | CCC(C(=O)O)C1CCN(c2ncc(-c3cccc(Nc4cc(C)ccn4)n3)s2)CC1 (stereo not shown) [Compound A-698, 2-(1-{5-[6-(4-methylpyridin-2-ylamino)pyridin-2-yl]thiazol-2-yl}piperidin-4-yl)butyric acid]
6.00 to 7.00 | Cc1ccc(Nc2cccc(-c3cnc(N4CCC(CC(=O)O)CC4)s3)n2)nc1 [Compound A-629]
> 7.00 | Cc1ccnc(Nc2cccc(-c3cnc(N(C)C(C(N)=O)C(C)C)s3)n2)c1 (stereo not shown) [Compound A-668, 3-methyl-2-(N-methyl-N-{5-[6-(4-methylpyridin-2-ylamino)pyridin-2-yl]thiazol-2-yl}amino)butylamide]
6.00 to 7.00 | CC(=O)N1CCC(N(CCNC(=O)N(C)C)c2ncc(-c3cccc(Nc4cc(C)ccn4)n3)s2)CC1 [Compound A-523]
> 7.00 | O=C(O)CC1CCN(c2ncc(-c3cccc(Nc4cc(CCO)ccn4)n3)s2)CC1 [Compound A-681, [1-(5-{6-[4-(2-hydroxyethyl)pyridin-2-ylamino]pyridin-2-yl}thiazol-2-yl)piperidin-4-yl]acetic acid dihydrochloride]
> 7.00 | Cc1ccnc(Nc2cccc(-c3cnc(N(C)CCC/C=C(\F)C(=O)O)s3)n2)c1 [Compound A-647, (Z)-2-fluoro-6-(N-methyl-N-{5-[6-(4-methylpyridin-2-ylamino)pyridin-2-yl]thiazol-2-yl}amino)hex-2-enoic acid dihydrochloride]
> 7.00 | Cc1ccnc(Nc2cccc(-c3cnc(N4CCc5c(CCC(=O)O)cccc5C4)s3)n2)c1 [Compound A-642, 3-(2-{5-[6-(4-methylpyridin-2-ylamino)pyridin-2-yl]thiazol-2-yl}-1,2,3,4-tetrahydroisoquinolin-5-yl)propionic acid]
> 7.00 | Cc1ccnc(Nc2cccc(-c3cnc(N4CCC[C@H]4C(=O)NCCO)s3)n2)c1 [Compound A-658, N-(2-hydroxyethyl)-(S)-1-{5-[6-(4-methylpyridin-2-ylamino)pyridin-2-yl]thiazol-2-yl}pyrrolidine-2-carboxamide]
> 7.00 | Cc1ccnc(Nc2cccc(-c3cnc(N4CCC(NS(C)(=O)=O)CC4)s3)n2)c1 [Compound A-484, N-(1-{5-[6-(4-methylpyridin-2-ylamino)pyridin-2-yl]thiazol-2-yl}piperidin-4-yl)methanesulfonamide]
> 7.00 | O=C(O)CC1CC2CCC(C1)N2c1ncc(-c2cccc(Nc3cc(C(F)(F)F)ccn3)n2)s1 (stereo not shown) [Compound A-648, (8-{5-[6-(4-trifluoromethylpyridin-2-ylamino)pyridin-2-yl]thiazol-2-yl}-8-azabicyclo[3.2.1]oct-3-yl)acetic acid]
> 7.00 | CC(C)(C)c1ccnc(Nc2cccc(-c3cnc(N4CCC(CC(=O)O)CC4)s3)n2)c1 [Compound A-710, (1-{5-[6-(4-tert-butylpyridin-2-ylamino)pyridin-2-yl]thiazol-2-yl}piperidin-4-yl)acetic acid dihydrochloride]
> 7.00 | COCC1CCCN(c2ncc(-c3cccc(Nc4cc(C)ccn4)n3)s2)C1 (stereo not shown) [Compound A-481, N-{6-[2-(3-methoxymethylpiperidin-1-yl)thiazol-5-yl]pyridin-2-yl}-N-(4-methylpyridin-2-yl)amine]
> 7.00 | Cc1ccnc(Nc2cccc(-c3cnc(N(C)CCCC(=O)O)s3)n2)c1 [Compound A-634, 4-(N-methyl-N-{5-[6-(4-methylpyridin-2-ylamino)pyridin-2-yl]thiazol-2-yl}amino)butyric acid dihydrochloride]
> 7.00 | CC(C)(O)c1ccnc(Nc2cccc(-c3cnc(N4CCC(CC(=O)O)CC4)s3)n2)c1 [Compound A-717, [1-(5-{6-[4-(1-hydroxy-1-methylethyl)pyridin-2-ylamino]pyridin-2-yl}thiazol-2-yl)piperidin-4-yl]acetic acid dihydrochloride]
> 7.00 | Cc1ccnc(Nc2cccc(-c3cnc(N4CCC5(CC4)CC5C(=O)O)s3)n2)c1 (stereo not shown) [Compound A-712, 6-{5-[6-(4-methylpyridin-2-ylamino)pyridin-2-yl]thiazol-2-yl}-6-azaspiro[2.5]octane-1-carboxylic acid]

same assay, conditions: Tables 2-x, thiophene compounds B; read-out: sykHTRK ave IC50

pIC50 | SMILES
6.00 to 7.00 | Cc1ccnc(Nc2cccc(-c3ccc(C(=O)N[C@H](C(=O)O)C(C)C)s3)n2)c1 [Compound B-117]
6.00 to 7.00 | Cc1ccnc(Nc2cccc(-c3ccc(C(=O)N(C)Cc4ccc(C(=O)O)cc4)s3)n2)c1 [Compound B-122]
6.00 to 7.00 | Cc1ccnc(Nc2cccc(-c3ccc(CN4CCCc5ccc(C(=O)O)cc54)s3)n2)c1 [Compound B-110]
> 7.00 | CC(=O)N(CCC(=O)O)Cc1ccc(-c2cccc(Nc3cc(C)ccn3)n2)s1 [Compound B-124, 3-(N-acetyl-N-{5-[6-(4-methylpyridin-2-ylamino)pyridin-2-yl]thiophen-2-ylmethyl}amino)propionic acid hydrochloride]
6.00 to 7.00 | Cc1ccnc(Nc2cccc(-c3ccc(C(=O)NCc4ccc(C(=O)O)cc4)s3)n2)c1 [Compound B-112]
6.00 to 7.00 | Cc1ccnc(Nc2cccc(-c3ccc(CN(Cc4ccccc4)C(=O)CCC(=O)O)s3)n2)c1 [Compound B-126]
